pEC50, pIC50: −log10 of the molar value. Like-named read-outs stand apart in the source and are kept apart here.
Assays:
[1] = system: IL-1β cytokine output from THP-1s; assay: THP-1 AlphaLISA IL-1β cytokine inhibition assay; type: cell-based; conditions: LPS then nigericin
Procedure: Measuring Inhibitory Effects on IL-1β Cytokine Output from THP-1s
The cytokine inhibition profiles of compounds of formula (I) were determined in a differentiated THP-1 cell assay. All assays were performed in RPMI-1640 growth medium (Gibco), supplemented with 10% fetal bovine serum (FBS; Gibco), 1% penicillin-streptomycin and 1% sodium pyruvate unless specified otherwise. The IL-1β cytokine inhibition assay was run in a background of differentiated THP-1 cells as described below. All reagents described were from Sigma-Aldrich unless specified otherwise. Compounds were prepared as 10 mM DMSO stocks.
THP-1 cells were expanded as a suspension up to 80% confluence in appropriate growth medium. Cells were harvested, suspended, and treated with an appropriate concentration of phorbol 12-myristate 13-acetate (PMA) over a 72 hr period (37° C./5% CO2).
Following 72 hrs of THP-1 cell incubation, cellular medium was removed and replaced with fresh growth media containing 1% of FBS. Working concentrations of compounds were prepared separately in 10% FBS treated growth medium and pre-incubated with the cells for 30 minutes (37° C./5% CO2). Following the 30 minute compound pre-incubation, THP-1s were treated with an appropriate concentration of LPS and the cells were subsequently incubated for a 24 hr period (37° C./5% CO2). An appropriate final concentration of Nigericin was then dispensed into the THP-1 plates and incubated for 1 hour (37° C./5% CO2) before THP-1 supernatants were harvested and collected in separate polypropylene 96-well holding plates.
Reagents from an IL-1β and IL-6 commercial kit (Perkin Elmer) were prepared and run according to the manufacturer's instructions. Subsequently, fluorescence signal detection in a microplate reader was measured (EnVision® Multilabel Reader, Perkin Elmer).
Percentage inhibition was calculated per cytokine by normalising the sample data to the high and low controls used within each plate (+/− LPS respectively).

[2] = Hepatocyte stability assay, mouse; type: in vitro ADME; conditions: mouse, hepatocytes; for hepatocyte CLint at 10 μM: Hepatocyte stability Clint; for half-life at 10 μM: Hepatocyte stability T½
From the text: (§1) Defrosted cryo-preserved hepatocytes (viability >70%) were used to determine the metabolic stability of a compound via calculation of intrinsic clearance (CIint; a measure of the removal of a compound from the liver in the absence of blood flow and cell binding). Clearance data are particularly important for in vitro work as they can be used in combination with in vivo data to predict the half-life and oral bioavailability of a drug.
(§2) The metabolic stability in hepatocytes assay involves a time-dependent reaction using both positive and negative controls. The cells were pre-incubated at 37° C. then spiked with test compound (and positive control); samples were taken at pre-determined time intervals and were analysed to monitor the change in concentration of the initial drug compound over 60 minutes. A buffer incubation reaction (with no hepatocytes present) acted as a negative control and two cocktail solutions, containing compounds with known high and low clearance values (verapamil/7-hydroxycoumarin and propranolol/diltiazem), acted as positive controls. • 1. The assay was run with a cell concentration of 0.5×10^6 cells/mL in Leibovitz buffer. • 2. All compounds and controls were run in duplicate. • 3. Compound concentration was 10 μM. • 4. All compounds and controls were incubated with both cells and buffer to show turnover was due to hepatic metabolism. • 5. All wells on the incubation plate had 326.7 μL of either cells or buffer added. • 6. Prior to assay, cell and buffer-only incubation plates were preincubated for 10 mins at 37° C. • 7. The assay was initiated by adding compounds, 3.3 μL of 1 mM in 10% DMSO—90% Buffer; final DMSO concentration was 0.1%. • 8. Samples were taken at regular timepoints (0, 5, 10, 20, 40, 60 min) until 60 mins. • 9. Sample volume was 40 μL and was added to 160 μL of crash solvent (acetonitrile with internal standard) and stored on ice. • 10. At the end of the assay, the crash plates were centrifuged at 3500 rpm for 20 mins at 4° C. • 11. 80 μL of clear supernatant was removed and mixed with 80 μL of deionised water before being analysed by LC-MS/MS.
(§3) Raw LC-MS/MS data was exported to, and analysed in, Microsoft Excel for determination of intrinsic clearance. The percentage remaining of a compound was monitored using the peak area of the initial concentration as 100%. Intrinsic clearance and half-life values were calculated using a graph of the natural log of percentage remaining versus the time of reaction in minutes.

[3] = Hepatocyte stability assay, human; type: in vitro ADME; conditions: human, hepatocytes; for hepatocyte CLint at 10 μM: Hepatocyte stability Clint; for half-life at 10 μM: Hepatocyte stability T½
From the text: as §1, §2, §3

[4] = system: NRF2 (nuclear factor erythroid 2-related factor 2); assay: NRF2 +/-GSH activation assay (DiscoverX PathHunter NRF2 translocation kit, U2OS cells); type: cell-based; conditions: for NRF2 activation +GSH Emax / NRF2 activation −GSH Emax: normalised to DMF high control
Procedure: Measuring Compound Activation Effects on the Anti-Inflammatory Transcription Factor NRF2 in DiscoverX PathHunter NRF2 Translocation Kit
Potency and efficacy of compounds of formula (I) against the target of interest to activate NRF2 (nuclear factor erythroid 2-related factor 2) were determined using the PathHunter NRF2 translocation kit (DiscoverX). The NRF2 translocation assay was run using an engineered recombinant cell line, utilising enzyme fragment complementation to determine activation of the Keap1-NRF2 protein complex and subsequent translocation of NRF2 into the nucleus. Enzyme activity was quantified using a chemiluminescent substrate consumed following the formation of a functional enzyme upon PK-tagged NRF2 translocation into the nucleus.
The assay was run under both +/−GSH (glutathione) conditions to determine the sensitivity of the compounds' NRF2-activating abilities to attenuation by GSH.
Additionally, a defined concentration of DMF was used as the ‘High’ control to normalise test compound activation responses to.
U2OS PathHunter eXpress cells were thawed from frozen prior to plating. Following plating, U2OS cells were incubated for 24 hrs (37° C./5% CO2) in commercial kit provided cell medium.
Following 24 hrs of U2OS incubation, cells were directly treated with an appropriate final concentration of compound, for −GSH conditions or, for +GSH conditions, an intermediate plate containing 6× working concentrations of compound stocks was prepared in a 6 mM working concentration of GSH solution (solubilised in sterile PBS). Following a 30 minute compound-GSH pre-incubation (37° C./5% CO2) for +GSH treatment, plated U2OS cells were incubated with an appropriate final concentration of compound and GSH.
Following compound (+/−GSH) treatment, the U2OS plates were incubated for a further 6 hours (37° C./5% CO2) before detection reagent from the PathHunter NRF2 commercial kit was prepared and added to test plates according to the manufacturer's instructions. Subsequently, the luminescence signal detection was measured in a microplate reader (PHERAstar®, BMG Labtech).
Percentage activation was calculated by normalising the sample data to the high and low controls used within each plate (+/−DMF).

[5] = Homo sapiens, THP-1, differentiated THP-1 cells
[6] = +GSH, 30 minute compound-GSH pre-incubation, read-out: NRF2 activation +GSH EC50
[7] = −GSH, U2OS PathHunter cells, 6 hours compound treatment, read-out: NRF2 activation −GSH EC50

Structure (SMILES) | pIC50 [1, 5] | pEC50 [4, 6] | pEC50 [4, 7] | hepatocyte CLint at 10 μM [2] [µL/min/1e6 cells] | half-life at 10 μM [2] [min] | hepatocyte CLint at 10 μM [3] [µL/min/1e6 cells] | half-life at 10 μM [3] [min] | NRF2 activation +GSH Emax ([4]; +GSH) [%] | NRF2 activation −GSH Emax ([4]; −GSH) [%] | pIC50 ([1]; differentiated THP-1 cells)
C=C(Cc1nc(-c2cccc(CCCC)c2)no1)C(=O)O [Example 27, 2-((3-(3-butylphenyl)-1,2,4-oxadiazol-5-yl)methyl)acrylic acid] | 4.53 |  |  | 281 | 5 | 156 | 8 |  |  | 
C=C(Cc1nc(CCCCCCCC)cs1)C(=O)O [Example 38, 2-((4-octylthiazol-2-yl)methyl)acrylic acid] | 5.11 |  |  | 204 | 9 | > 447 | < 3 |  |  | 
C=C(Cc1noc(C(F)(F)c2ccc(C(F)(F)F)cc2)n1)C(=O)O [Example 97, 2-((5-(difluoro(4-(trifluoromethyl)phenyl)methyl)-1,2,4-oxadiazol-3-yl)methyl)acrylic acid] | 4.66 |  |  | 79 | 15 | 13 | 125 |  |  | 
C=C(Cc1nc(C(F)(F)c2ccc(F)cc2)no1)C(=O)O [Example 125, 2-((3-(difluoro(4-fluorophenyl)methyl)-1,2,4-oxadiazol-5-yl)methyl)acrylic acid] | < 4.00 | < 4.00 | < 4.00 |  |  |  |  | 26 | 37 | 
C=C(Cc1nc(-c2ccc(OC3CCC3)cc2)no1)C(=O)O [Example 142, 2-((3-(4-cyclobutoxyphenyl)-1,2,4-oxadiazol-5-yl)methyl)acrylic acid] | < 4.00 | 4.57 | 4.63 |  |  |  |  | 168 | 189 | 
C=C(Cc1nc(-c2ccc(O[C@H](C)CC)cc2)no1)C(=O)O [Example 144, (R)-2-((3-(4-(sec-butoxy)phenyl)-1,2,4-oxadiazol-5-yl)methyl)acrylic acid] |  | 4.51 | 4.55 |  |  |  |  | 139 | 167 | < 4.00
C=C(Cc1nc(-c2ccc(OCCCC)c(Cl)c2)no1)C(=O)O [Example 160, 2-((3-(4-butoxy-3-chlorophenyl)-1,2,4-oxadiazol-5-yl)methyl)acrylic acid] | < 5.00 | 5.39 | 5.30 |  |  |  |  | 238 | 216 | 
C=C(Cc1nc(-c2ccc(OCCCC)c(C(F)(F)F)c2)no1)C(=O)O [Example 161, 2-((3-(4-butoxy-3-(trifluoromethyl)phenyl)-1,2,4-oxadiazol-5-yl)methyl)acrylic acid] | < 5.00 | 5.14 | 4.60 |  |  |  |  | 114 | 258 | 

Continued, in another order:

pIC50 [1, 5] | pEC50 [4, 6] | pEC50 [4, 7] | Structure (SMILES) | hepatocyte CLint at 10 μM [2] [µL/min/1e6 cells] | half-life at 10 μM [2] [min] | hepatocyte CLint at 10 μM [3] [µL/min/1e6 cells] | half-life at 10 μM [3] [min] | NRF2 activation +GSH Emax ([4]; +GSH) [%] | NRF2 activation −GSH Emax ([4]; −GSH) [%] | pIC50 ([1]; differentiated THP-1 cells)
< 4.00 | 4.43 | 4.44 | C=C(Cc1nc(-c2ccc(OCCC)c(Cl)c2)no1)C(=O)O [Example 130, 2-((3-(3-chloro-4-propoxyphenyl)-1,2,4-oxadiazol-5-yl)methyl)acrylic acid] |  |  |  |  | 129 | 177 | 
4.66 | 4.84 | 4.92 | C=C(Cc1nc(-c2ccc(OC3CCCC3)cc2)no1)C(=O)O [Example 143, 2-((3-(4-cyclopentyloxyphenyl)-1,2,4-oxadiazol-5-yl)methyl)acrylic acid] |  |  |  |  | 195 | 243 | 
< 4.00 | < 4.00 | < 4.00 | C=C(Cc1nc(C2(c3ccc([S+]([O-])C(F)(F)F)cc3)CC2)no1)C(=O)O (centres unmarked) [Example 157, 2-((3-(1-(4-((trifluoromethyl)sulfinyl)phenyl)cyclopropyl)-1,2,4-oxadiazol-5-yl)methyl)acrylic acid] |  |  |  |  | −5 | 41 | 
< 4.50 | 5.54 | 5.59 | C=C(Cc1nc(-c2ccc(SC(F)(F)F)cc2)no1)C(=O)O [Example 158, 2-((3-(4-((trifluoromethyl)thio)phenyl)-1,2,4-oxadiazol-5-yl)methyl)acrylic acid] |  |  |  |  | 196 | 189 | 
< 4.00 | 4.40 | 4.46 | C=C(Cc1nc(-c2ccc(OCCCOC)cc2)no1)C(=O)O [Example 159, 2-((3-(4-(3-methoxypropoxy)phenyl)-1,2,4-oxadiazol-5-yl)methyl)acrylic acid] |  |  |  |  | 85 | 87 | 
< 4.00 | < 4.00 | 4.21 | C=C(Cc1nc(Cc2ccc(OC)c(Cl)c2)no1)C(=O)O [Example 163, 2-((3-(3-chloro-4-methoxybenzyl)-1,2,4-oxadiazol-5-yl)methyl)acrylic acid] |  |  |  |  | −10 | 61 | 
< 4.00 | 4.20 | 4.37 | C=C(Cc1nc(Cc2cc(F)c(Cl)c(F)c2)no1)C(=O)O [Example 164, 2-((3-(4-chloro-3,5-difluorobenzyl)-1,2,4-oxadiazol-5-yl)methyl)acrylic acid] |  |  |  |  | 5.5 | 62 | 
< 4.00 | < 4.00 | < 4.00 | C=C(Cc1nc(Cc2ccc(C)c(Cl)c2)no1)C(=O)O [Example 165, 2-((3-(3-chloro-4-methylbenzyl)-1,2,4-oxadiazol-5-yl)methyl)acrylic acid] |  |  |  |  | 16 | 25 | 

— patent US12617762B2, “Carboxy derivatives with antiinflamatory properties” (Sitryx Therapeutics Limited, priority 2019, dated 2026)
